# Results taken from ChEMBL document CHEMBL3507680, “University of Dundee, Gates Library screen for HepG2 cell viability”.
# Assay: Human HepG2 cell viability assay in 384 well format
# Format: toxicity, cell-based
# Parameters: dose 125 nL, time 70.5 hour; cytotoxicity at 70.5 h: concentration not given beside the values
# Details: HepG2 cells, read-out: Inhibition
row,SMILES,cytotoxicity at 70.5 h
1,O=C(c1ccoc1)N1CCCCC1c1nc[nH]n1 (centres undefined),-1.78%
2,CS(=O)(=O)CCCN1CCOC2(CCc3ccccc32)C1 (centres undefined),0.769%
3,c1ccc(CCN2CCOC3(CCc4ccccc43)C2)nc1 (centres undefined),-15.8%
4,O=C(c1ccccc1)C1CCN(Cc2cc3c(cc2O)CCC3)CC1,33.9%
5,CC(=O)c1c[nH]c(C(=O)N2CCN(C(C(N)=O)c3ccccc3)CC2)c1 (centres undefined),47.9%
6,Cc1nc2ccccc2n(Cc2nnnn2C2CC2)c1=O,-5.13%
7,CCN(C(=O)c1ccccc1I)C1CC(=O)NC1=O (centres undefined),4.4%
8,COc1cccc(CN(C(=O)Nc2nncs2)C2CCC(O)CC2)c1 (centres undefined),0.476%
9,CCCC(=O)NCC(=O)NC1CC(C)(C)Cc2oc(C)cc21 (centres undefined),-5.41%
10,CN(Cc1ccncc1)C(=O)c1ccc(F)c(NS(C)(=O)=O)c1,-4.24%
11,O=C(Nc1ccnn1C1CCCC1)c1ccc(NC2CC2)nc1,3.1%
12,Cc1cc(NC(=O)CN2CCCC(Cn3cncn3)C2)on1 (centres undefined),-3%
13,CC(C)(O)CNC(=O)c1sccc1Br,0.0507%
14,Cc1cc(C(=O)N2CCOC(c3nc(C)n[nH]3)C2)[nH]n1 (centres undefined),3.96%
15,CC(C)NC(=O)NCCCOC1CCOCC1,-4.28%
16,CCC(NC(=O)Nc1cc(F)c(OC)c(F)c1)c1noc(C)n1 (centres undefined),0.154%
17,O=C(Nc1cccn(CC(F)(F)F)c1=O)c1ccncc1F,-11.6%
18,O=C(NC1CC1)NC(c1cc(F)ccc1F)C1CC1 (centres undefined),-5.9%
19,O=C(c1[nH]nc(C2CC2)c1Cl)N1CCCC1,3.72%
20,O=C(NC1CCN(C2CC2)CC1)c1[nH]nc(C2CC2)c1Cl,-4.43%
21,Cc1nn(C)c(C)c1OCC(=O)N1CCC(O)(C(F)(F)F)CC1,-6.23%
22,CC(C)(C)c1cc(NC(=O)CN2CCCC(Cn3cncn3)C2)on1 (centres undefined),25.7%
23,Cc1cnn(CCCNC(=O)C2CCCCN2Cc2ccncc2)c1 (centres undefined),-4.19%
24,Cc1nccn1CCCNC(=O)C1CCCCN1Cc1ccncc1 (centres undefined),-2.44%

row,SMILES,cytotoxicity at 70.5 h
1,CC(C)OCCN1CCN(C(=O)c2cc(-n3cccn3)ccn2)CC1,-4.55%
2,Cc1cnn(CCCNC(=O)C2CCCCN2Cc2cccnc2)c1 (centres undefined),0.0952%
3,CC(C)(C)c1cc(NC(=O)CN2CCCCC2Cn2cncn2)on1 (centres undefined),-5.88%
4,CN(C)c1cccc(C(=O)N2CCn3c(nnc3-c3ccccc3)C2)c1,-7.74%
5,CN(C)C(CNC(=O)NCc1ccco1)c1cccs1 (centres undefined),-6.4%
6,Cc1nc(C2(NCc3cc(C#N)ccc3F)CCCCC2)no1,-17.2%
7,O=C(NCCn1ccnc1)c1cncc(Br)c1,19.8%
8,NC(=O)CCS(=O)(=O)Cc1ccc(OCC(F)(F)F)cc1,-9.93%
9,CCN(CC)S(=O)(=O)NCCc1cc(C)ccc1OC,-15.7%
10,CCC1CN(c2cnn(C)c(=O)c2Br)CCO1 (centres undefined),-1.58%
11,CCSc1ccc(NC(=O)NC(C)c2c(C)noc2C)cn1 (centres undefined),-6.61%
12,CN(C)c1cccc(C2CCCN2S(N)(=O)=O)c1 (centres undefined),-1.57%
13,O=C(NC1CCCN(c2ccc(OC(F)F)cc2)C1)c1c[nH]nn1 (centres undefined),18.5%
14,O=C(NC1CCCN(c2ccc(OC(F)F)cc2)C1)c1cnc[nH]1 (centres undefined),-11.2%
15,NS(=O)(=O)N1CCC(CSc2ccccc2)C1 (centres undefined),-9.2%
16,Cc1nc(C2(NC(=O)NCc3cc(C#N)ccc3F)CCCC2)no1,-10.1%
17,OCc1ccc(CNc2ccccc2CN2CCC(O)CC2)o1,-4.84%
18,O=S(=O)(CCO)Cc1ccc(OCC(F)(F)F)cc1,-9.29%
19,COc1ccccc1CNC1(CCO)CCOCC1,20.6%
20,Cc1c(Br)cccc1CNC1(CCO)CCOCC1,-1.58%
21,CC(C)OCCS(=O)(=O)N1CCCC1c1cccc(N(C)C)c1 (centres undefined),-5.82%
22,CCc1cnc(CN2CCC(O)(c3cc(OC)cc(OC)c3)CC2)o1,-12.2%
23,Cn1c(C2CC2)nc2c1CCN(CCc1ccccn1)C2,-5.41%
24,CCSc1ccc(NC(=O)NC(C)c2ccncc2)cn1 (centres undefined),-5.74%

row,SMILES,cytotoxicity at 70.5 h
1,CN(C)C(CNC(=O)N(Cc1ccco1)C1CC1)c1cccs1 (centres undefined),-11.4%
2,Cc1nnc(C(C)N(C)Cc2c(C)nn(-c3ccccc3C)c2C)o1 (centres undefined),2.96%
3,COCCOCCNC(=O)N1CCc2c(F)ccc(F)c2C1,2.28%
4,Cc1nccn1-c1ncccc1NC(=O)CCOCC(C)C,-7.64%
5,CN(CC(N)=O)C(=O)C1Cc2cc(Cl)ccc2O1 (centres undefined),-5.33%
6,Cc1cnn(CCCNCc2csc(COc3ccccc3)n2)c1,-3.68%
7,Cc1ccc(C2CSCCN2C(=O)c2cc(C(N)=O)cs2)o1 (centres undefined),-8.27%
8,O=C(NC1CC1)c1ccccc1NCc1cn2cccnc2n1,-5.34%
9,CN1CCN(S(=O)(=O)c2ccc(Cl)c(Cl)c2)c2cnccc21,-0.75%
10,CN1CCN(S(=O)(=O)c2cccnc2)c2cnccc21,-3.64%
11,CN1CCN(S(=O)(=O)c2cccc(F)c2)c2cnccc21,-2.79%
12,O=S(=O)(NC1CCCCC12OCCO2)c1cc(F)cc(F)c1 (centres undefined),-3.19%
13,O=S(=O)(NC1CCCCC12OCCO2)c1cc(Cl)cc(Cl)c1 (centres undefined),-3.17%
14,Cc1[nH]ncc1C(=O)NCC(CO)Cc1ccc(Cl)cc1 (centres undefined),-5.24%
15,CC(CO)(NC(=O)NCc1ccc(Br)s1)C1CC1 (centres undefined),-8.92%
16,Cc1cc2c(cc1NC(=O)NCC(C)C)OCO2,-8.91%
17,CC(C)c1ccc(C(C)N2CCCN(C(N)=O)CC2)cc1 (centres undefined),-5.71%
18,Cc1cc2c(cc1NC(=O)NC(C)(C)C)OCO2,-7.87%
19,c1ccc(Cc2nc(CNCCn3cccn3)cs2)cc1,1.06%
20,CC(c1ccc(Br)cc1)N1CCCN(C(N)=O)CC1 (centres undefined),-5.26%
21,O=C(NCC(CO)Cc1ccc(Cl)cc1)c1ccncc1Cl (centres undefined),-1.15%
22,CCN(CC)S(=O)(=O)N(Cc1cccc(C)c1)Cc1ccccn1,19.3%
23,Cc1cc(NCc2ccc(CS(N)(=O)=O)cc2)nc(C)n1,-12.6%
24,O=C1CN(CCS(=O)(=O)c2ccc(Cl)cc2)CCN1,-11.9%

row,SMILES,cytotoxicity at 70.5 h
1,CC(C)CNc1nnc(SC(C(=O)NCc2cccnc2)C(C)C)s1 (centres undefined),-15.2%
2,O=C1CCN(CCS(=O)(=O)c2ccc(Cl)cc2)CCN1,-11.7%
3,COc1ccccc1-c1csc(NC(=O)N2CCN(C)CC2C)n1 (centres undefined),-14.7%
4,CC(C)C(=O)NS(=O)(=O)c1ccc(F)c(C(F)(F)F)c1,-10.6%
5,CC(C)CCN1CCN(C(=O)c2c[nH]c(=O)[nH]2)CC1,-8.02%
6,COCCN1CCC(Nc2c(F)cc(C#N)cc2F)CC1,-14.5%
7,CCC1CN(C)c2ccccc2CN1C(=O)Nc1ccccc1OC (centres undefined),16.8%
8,CC(C)OCCN1CCC(Nc2ccc(C#N)cc2F)CC1,-8.23%
9,CCC1CN(C)c2ccccc2CN1C(=O)Nc1cccc(F)c1 (centres undefined),-9.77%
10,COc1ccccc1NC(=O)NC1(c2noc(CN(C)C)n2)CCCC1,22.4%
11,COc1cc(CN(C)Cc2cccnc2)c(SC)cc1OC,-8.67%
12,CC(O)CN1CCN(CCOCC(F)(F)F)CC1 (centres undefined),-7.92%
13,CC(C)(C)C(O)CN1CCN(CCOCC(F)(F)F)CC1 (centres undefined),-9.97%
14,CC(C)c1nc(CNC2CCN(C(=O)OC(C)(C)C)CC2)cs1,-8.72%
15,COc1ccc(CNc2cccnc2-n2cccn2)c(OC)c1OC,-11.5%
16,Cc1nc(C2CN(Cc3ccccc3C)CCO2)no1 (centres undefined),-11%
17,CCCNC(=O)CN1CCC(NCc2csc(C(C)C)n2)CC1,-11.5%
18,CCS(=O)(=O)CCN(C)Cc1cc(C)ccc1OC,-13.6%
19,CS(=O)(=O)Cc1ccc(C(=O)NCc2ccc(Cl)cc2Cl)cc1,-6.11%
20,COCCNC(=O)c1ccc2c(=O)n3c(nc2c1)CCCCCC3,7.92%
21,O=S(=O)(NCc1ccc(S(=O)(=O)N2CCCC2)s1)c1cc(Cl)ccc1Cl,-14.9%
22,O=S(=O)(NCc1ccc(S(=O)(=O)N2CCCC2)s1)c1ccc(F)cc1Cl,-1.37%
23,CC(=O)N1CCC(NC(=O)NCc2ncc(-c3ccccc3)o2)CC1,-3.53%
24,Cc1cccc2c1NC1(CCCC1)NC2=O,-13.5%

row,SMILES,cytotoxicity at 70.5 h
1,CCn1c(CN(C)Cc2cnc(C)s2)nc2c(F)cccc21,-24.5%
2,c1ccc(C(NCc2nnc(-c3ccco3)o2)C2CCC2)cc1 (centres undefined),-14.7%
3,CCNC(=O)CCC(=O)NC1(c2cccc(C(F)(F)F)c2)CCC1,16.4%
4,COCC(O)CNc1ccc(C#N)cc1C(F)(F)F (centres undefined),-9.81%
5,Cc1nc(C)c(CCNc2ccc(S(N)(=O)=O)cc2C#N)s1,-15%
6,CCC(C(=O)Nc1ccc2cn(CC)nc2c1)N1CCCC1=O (centres undefined),-24.8%
7,Cc1ccnc(NC(=O)C2CCN(CCCn3ccnc3)CC2)c1,-15.3%
8,COc1cccc(CN(C)Cc2nc(C(C)C)no2)c1,14.7%
9,CO[C@H]1CN(C(=O)OC(C)(C)C)CC1NCc1cccn1C (some centres undefined),-8.94%
10,CO[C@H]1CN(C(=O)OC(C)(C)C)CC1NCc1cc[nH]c1 (some centres undefined),-20.4%
11,CCN1CCc2c(cccc2NC(=O)CN(C)C2CCSC2)C1 (centres undefined),-3.51%
12,Cn1cc(CCNCC2CNc3ccnn3C2)cn1 (centres undefined),1.67%
13,COCCS(=O)(=O)NC(C)c1ccc(-n2nc(C)cc2C)cc1 (centres undefined),3.86%
14,N#Cc1c(F)cccc1N1CCN(S(=O)(=O)c2cccs2)CC1,8.47%
15,COc1ccc(C2CCCN2C(=O)NCCNc2ncccn2)cc1 (centres undefined),-4.74%
16,CCCOc1cc(C)ccc1NC(=O)NCCC(=O)N(C)C,-2.29%
17,O=C(NCC1CC1)C1CSCN1S(=O)(=O)c1cccc(F)c1 (centres undefined),-0.541%
18,CC(O)CN1CCC(CNCc2ccc(S(C)(=O)=O)cc2)CC1 (centres undefined),-3.17%
19,CC(C1CC1)N(C)C(=O)c1cnc(-c2ccc3c(c2)OCO3)s1 (centres undefined),13.8%
20,Cc1cccc(N2CCC(NC(=O)CCCc3cccs3)CC2)n1,-2.62%
21,CSCC(CCO)NC(=O)Nc1cc(C)ccc1C (centres undefined),0.113%
22,OCC1CCCN1c1cc(NCCNc2ccccn2)ncn1 (centres undefined),0.758%
23,Cc1cn(-c2ccccc2)nc1NS(=O)(=O)c1cc(C(=O)O)cs1,14.9%
